{"source": "patent US5597798A", "about": "“Taxol and epidermal growth factor used to enhance treatment of ovarian cancer” (The Regents of the University of California, priority 1994, dated 1997)", "test_system": "2008/C13*5 cells", "test": "Cellular accumulation of DDP", "format": "cell-based, human", "conditions": "medium alone, end of a 1-h incubation", "experimental": "Cell-associated ^195m Pt was determined by as a measure of DDP accumulation. For DDP accumulation studies, subconfluent monolayers were treated with 37° C. RPMI 1640 medium containing 20 μM [^195m Pt]-DDD. The dishes were immediately returned to the incubater. After 1 h incubation, the medium was aspirated, the cells were washed rapidly with 4° C. PBS 4 times. Two ml of 1N NaOH was added and the cells allowed to digest overnight. A forty μl aliquot was used for determination of protein content by the method of Bradford (Bradford, Anal. Biochem. 72:248-254 (1976)), and the remaining […] was counted in glass tubes on a Trak 1191 gamma counter (Tracer Analytic, EIK Grove Village, Ill.). Columns represent the mean values of 3 experiments performed with duplicate cultures. The bars represent the standard deviation.\nThe 2008/C13*5 cell line is 8-10-fold resistant to DDP. […] C13*5 cells were treated with appropriate concentration of DDP in the presence (.circle-solid.) or absence (0) of 10^-7 M TPA for 1 h. Drug cytotoxicity was determined by colonogenic assay on plastic dishes. Each point represents the mean values of 3 experiments performed with triplicate cultures. The bars represent the standard deviation. […] This 2.6-fold sensitization was nearly identical with the 2.5 fold sensitization observed in the DDP-sensitive 2008 cells. […]"}
{"molecule": "N.N.[Cl][Pt][Cl]", "note": "[cisplatin]", "values": [{"measurement": "DDP accumulated", "result": "37.0±3 pmol/mg of protein"}]}
